Data published in ChEMBL document CHEMBL1154712, “Synthesis and cytotoxic activity of psorospermin and acronycine analogues in the 3-propyloxy-acridin-9(10H)-one and -benzo[b]acridin-125H-one series” (Eur J Med Chem, 2010).
pIC50: −log10 of the molar value.

How the values were obtained:
L1210 = assay: Cytotoxicity against mouse L1210 cells after 48 hrs by microculture tetrazolium assay; assay type: functional, cell-based; conditions: L1210, 48 h
[1] = Cytotoxicity against human KB3-1 cells after 96 hrs by microculture tetrazolium assay; assay type: functional, cell-based; conditions: KB 3-1, 96 h

Row | SMILES | pIC50 (L1210) | pIC50 [1]
1 | C=CCOc1cc(OC)c2c(=O)c3ccccc3n(C)c2c1 | 4.87 | 4.98
2 | C=CCOc1cc(OC)c2c(=O)c3cc4ccccc4cc3n(C)c2c1 | 4.48 | 5.43
3 | COc1cc2c(c3c1c(=O)c1ccccc1n3C)C[C@H]([C@@]1(C)CO1)O2 (racemic) | – | 7.22
4 | COc1cc2c(c3c1c(=O)c1cc4ccccc4cc1n3C)C[C@H]([C@@]1(C)CO1)O2 (racemic) | 7.40 | 7.10
5 | COc1cc(OCC2COC(=O)O2)cc2c1c(=O)c1cc3ccccc3cc1n2C (racemic) | 4.73 | 4.63
6 | COc1cc(OCC(COC(C)=O)OC(C)=O)cc2c1c(=O)c1ccccc1n2C (racemic) | 4.39 | 4.42
7 | COc1cc(OCC2CO2)cc2c1c(=O)c1ccccc1n2C (racemic) | 7.05 | 6.92
8 | COc1cc(OCC(O)COC(C)=O)cc2c1c(=O)c1ccccc1n2C (racemic) | 4.49 | 4.65
9 | COc1cc(OCC2COC(=O)O2)cc2c1c(=O)c1ccccc1n2C (racemic) | 4.43 | 4.62
10 | COc1cc(OCC(O)CO)cc2c1c(=O)c1cc3ccccc3cc1n2C (racemic) | 4.10 | 4.19
11 | COc1cc(OCC(COC(C)=O)OC(C)=O)cc2c1c(=O)c1cc3ccccc3cc1n2C (racemic) | 5.51 | 5.10
12 | COc1cc(OCC2CO2)cc2c1c(=O)c1cc3ccccc3cc1n2C (racemic) | 7.52 | 6.70
13 | COc1cc(OCC(O)COC(C)=O)cc2c1c(=O)c1cc3ccccc3cc1n2C (racemic) | 5.21 | 5.24
14 | COc1cc(OCC(O)CO)cc2c1c(=O)c1ccccc1n2C (racemic) | 4.22 | 4.32
15 | COc1cc2c(c3c1c(=O)c1cc4ccccc4cc1n3C)[C@@H](OC(C)=O)[C@@H](OC(C)=O)C(C)(C)O2 (relative stereo) | – | 7.05
